{
  "source": "patent US20230339878A1",
  "about": "“SLC26A3 INHIBITORS AND USE THEREOF” (THE REGENTS OF THE UNIVERSITY OF CALIFORNIA, priority 2018, published 2023)",
  "key": {"[1]": {"target": "T1, TMEM16A (Homo sapiens, UniProt Q5XXA6)", "T1 sequence (Q5XXA6 1-986)": "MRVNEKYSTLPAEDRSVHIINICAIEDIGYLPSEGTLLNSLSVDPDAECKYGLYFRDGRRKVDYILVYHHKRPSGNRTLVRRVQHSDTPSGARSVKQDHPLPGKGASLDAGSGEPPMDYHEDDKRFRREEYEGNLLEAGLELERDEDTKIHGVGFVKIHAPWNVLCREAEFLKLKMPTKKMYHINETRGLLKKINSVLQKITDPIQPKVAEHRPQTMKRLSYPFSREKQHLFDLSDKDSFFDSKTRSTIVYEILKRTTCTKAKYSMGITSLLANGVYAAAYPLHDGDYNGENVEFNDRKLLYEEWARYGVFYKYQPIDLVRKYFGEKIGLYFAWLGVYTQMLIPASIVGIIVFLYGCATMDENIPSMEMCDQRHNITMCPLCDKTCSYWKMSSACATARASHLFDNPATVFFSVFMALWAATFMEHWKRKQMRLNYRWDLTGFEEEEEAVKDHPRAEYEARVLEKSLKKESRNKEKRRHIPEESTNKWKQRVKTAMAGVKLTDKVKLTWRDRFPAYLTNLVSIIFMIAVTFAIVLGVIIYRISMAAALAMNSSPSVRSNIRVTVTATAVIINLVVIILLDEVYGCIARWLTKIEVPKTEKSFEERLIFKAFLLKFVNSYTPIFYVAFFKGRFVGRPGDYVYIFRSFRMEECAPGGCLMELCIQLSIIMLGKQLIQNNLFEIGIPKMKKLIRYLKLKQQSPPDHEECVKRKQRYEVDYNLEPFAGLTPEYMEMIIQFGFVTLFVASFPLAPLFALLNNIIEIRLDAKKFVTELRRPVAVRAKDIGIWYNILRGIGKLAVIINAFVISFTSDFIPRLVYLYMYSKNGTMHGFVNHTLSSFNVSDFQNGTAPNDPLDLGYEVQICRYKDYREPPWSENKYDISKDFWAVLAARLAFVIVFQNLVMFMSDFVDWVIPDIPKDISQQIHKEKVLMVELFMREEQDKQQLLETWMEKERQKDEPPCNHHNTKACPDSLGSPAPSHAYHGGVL", "experiment": "Selectivity: TMEM16A (ATP-stimulated) YFP assay", "format": "cell-based", "details": "10 µM", "source_text": "(§1) To investigate Compound A1 selectivity, transport assays were done on a panel of SLC26-family homologs, and other relevant epithelial ion transporters and channels. […] In separate studies, to investigate possible action of Compound A1 on multiple ion transporters and channels in a human epithelium, human bronchial epithelial (HBE) cells were studied by short-circuit current, with successive additions of amiloride (to block the epithelial sodium channel ENaC), forskolin, CFTRinh-172 (to block CFTR), and ATP (to activate the Ca^2+-activated chloride channel, CaCC) (FIG. 5C).\nYFP-based assays of CFTR, pendrin and TMEM16A were as described. HEK cells transfected to express YFP and SLC26A3, slc26a6 or slc26a9 were functionally assayed using a Cl^-/I^- exchange protocol. Assays of Cl^-/HCO3^- exchange were done using BCECF as an intracellular pH indicator as described for pendrin. […]\nHEK293 cells transfected with pIRES-YFP-slc26a9 were plated in 96-well black-walled, clear-bottom tissue culture plates (Corning Life Sciences, Tewksbury, MA) after coating with FNC Coating Mix (AthenaES, Baltimore, MD). […] Assays of slc26a9-mediated anion exchange were done by initially recording YFP fluorescence prior to addition of 100 µL of NaI-substituted PBS to test wells, with the initial rate of Cl^-/I^- exchange deduced from fluorescence intensity by single exponential regression. […]"}, "[2]": {"tested_on": "ENaC, CFTR or CaCC activity in human bronchial epithelial (HBE) cells", "experiment": "Short-circuit current in well-differentiated HBE cells", "format": "cell-based", "details": "10 µM, pre-treatment 20 min; amiloride, forskolin, CFTRinh-172, ATP additions", "source_text": "as §1\nHEK293 cells transfected with pIRES-YFP-slc26a9 were plated in 96-well black-walled, clear-bottom tissue culture plates (Corning Life Sciences, Tewksbury, MA) after coating with FNC Coating Mix (AthenaES, Baltimore, MD). […] Assays of slc26a9-mediated anion exchange were done by initially recording YFP fluorescence prior to addition of 100 µL of NaI-substituted PBS to test wells, with the initial rate of Cl^-/I^- exchange deduced from fluorescence intensity by single exponential regression. […] To assay SLC26A3 function, HEK293 cells transduced with lentiviral particles generated from the pLVX-IRES-mCherry-SLC26A3 transfer vector were transfected to express YFP for Cl^-/I^- exchange assays as described above; red fluorescence images were acquired to confirm SLC26A3 expression in cells. […]"}},
  "note": "Entries after “also recorded” stand apart in the source; their conditions may differ.",
  "data": [
    {"smiles": "Cc1c(CC(=O)O)c(=O)oc2c(C)c(OCc3cccc(Br)c3)ccc12", "note": "[Compound A1]", "values": [
      {"measurement": "effect on activity of TMEM16A", "setting": "[1]", "value": "did not alter the activity; also recorded: differences not significant"},
      {"measurement": "effect on short-circuit current responses", "setting": "[2]", "value": "did not alter short-circuit current responses; also recorded: differences not significant"}
    ]}
  ]
}
